The text below walks through data of patent US12678451B2, “Cannabinoid and omega fatty acid compositions and methods of using” (GreenWay Herbal Products, LLC, priority 2019, dated 2026).

For this assay, the system named is cytokines induced in mice by LPS. As to the kind of experiment: Mouse LPS cytokine model, Example 6D, ALA, DHA and EPA omega-3 samples. To be noted: 12.5 mg total omega fatty acids per mouse, DXM 0.01 mg per mouse. Format: in vivo. The procedure:
A series of experiments using a mouse LPS cytokine animal model were performed. In the mouse LPS cytokine animal model, mice were injected with LPS, which induced the immune response shortly after the mice were injected with one of the potential anti-inflammatory compounds under evaluation (the “test compound”). The efficacy of the test compound was evaluated based on its ability to reduce expression levels of inflammatory cytokines that were elevated due to the immune response. The test compounds included a cannabinoid, an omega fatty acid, and a cannabinoid-omega fatty acid composition.
The mice were intraperitoneally injected with 0.1 mL of the test compound. One hour later, the mice were intraperitoneally injected with 0.1 mL of LPS in phosphate buffered saline (PBS). Four hours later, a heart puncture was performed and the blood was allowed to clot to generate serum. 0.1 mL of the serum was diluted 1:2 with PBS and stored at −80° C. The serum was then sent to a laboratory where a mouse cytokine array/chemokine array 31-plex (MD31) analysis was performed that analyzed the expression levels of the 32 cytokines/chemokines listed in Table 9, above.
For each considered test compound, the ability of the test compound to suppress each inflammatory cytokine was calculated by determining the percent suppression.
36 female C57BL/6 mice that weighed approximately 20 g each were obtained and allowed to acclimate for one week after arrival with unlimited access to food and water. On the day of the study, the mice were weighed and split into eight groups of four mice each so that the average weight of each group was as close as possible to each other.
All of the omega fatty acid samples that were tested were diluted so the dose was 12.5 mg of total omega fatty acids per mouse. […] The omega fatty acids samples tested included: (1) pollock oil, 456 mg/mL omega unsaturated fatty acids. The pollock oil contained a mixture of anti-inflammatory omega-3, omega-7 and omega-9 unsaturated fatty acids. […] (2) Flaxseed oil, 656 mg/mL anti-inflammatory omega unsaturated fatty acids. The flaxseed oil contained a mixture of anti-inflammatory omega-3 and omega-9 unsaturated fatty acids. The omega-3 and omega-9 unsaturated fatty acids constituted 77.6% and […], respectively, of the anti-inflammatory omega fatty acids contained in the flaxseed oil. A 12.5 mg dose contained 9.7 mg of ALA in the triglyceride form. (3) Mono 2:1 DHA:EPA, 744 mg/mL omega-3 unsaturated fatty acids that were primarily DHA or EPA. A 12.5 mg dose contained 7.81 mg of DHA and 3.91 mg of EPA. The omega-3 unsaturated fatty acids were in the free mono form. […] A 12.5 mg dose contained 3.85 mg of DHA and 7.69 mg of EPA. The omega-3 unsaturated fatty acids were in the free mono form. (5) Tri 2:1 DHA:EPA, 678.9 mg/mL omega-3 unsaturated fatty acids that were primarily DHA or EPA. A 12.5 mg dose contained 7.88 mg of DHA and 3.94 mg of EPA. The omega-3 unsaturated fatty acids were in the triglyceride form. (6) Tri 1:2 DHA:EPA, 678.9 mg/mL omega-3 unsaturated fatty acids that were primarily DHA or EPA. A 12.5 mg dose contained 3.60 mg of DHA and 7.19 mg of EPA. The omega-3 unsaturated fatty acids were in the triglyceride form.

Regarding `C[C@@H]1C[C@H]2[C@@H]3CCC4=CC(=O)C=C[C@]4(C)[C@@]3(F)[C@@H](O)C[C@]2(C)[C@@]1(O)C(=O)CO` [Dexamethasone, dexamethasone], the “AVERAGE SUPPRESSION” value was 43.34%, the Eotaxin suppression is recorded as 24.14%, the IL-6 suppression came out at 76.02% and the IL-10 suppression stood at 47.30%. This molecule also returned an IP-10 suppression of 41.65%, a KC suppression of 56.41%, an MCP-1 suppression of 54.99% and an MIG suppression of 25.46%. The molecule further gave an MIP-1α suppression of 55.47%, an MIP-1β suppression of 48.33% and an RANTES suppression of 39.58%. Further, the “AVERAGE SUPPRESSION” value (listed as DXM) is given as 43.34%. In addition, the “AVERAGE SUPPRESSION” value (listed as dexamethasone) worked out at 43.34%.
